Columns and labels:
KB = assay: Cytotoxicity against human KB cells; format: functional, cell-based
HepG2 = assay: Cytotoxicity against human HepG2 cells; format: functional, cell-based

| SMILES | IC50 (KB) [µM] | IC50 (HepG2) [µM] |
| --- | --- | --- |
| C=C(C)[C@@H]1CC[C@]2(C(=O)OCc3cn([C@H]4C[C@H](n5cc(C)c(=O)[nH]c5=O)O[C@@H]4CO)nn3)CC[C@]3(C)[C@H](CC[C@@H]4[C@@]5(C)CC[C@H](OC(=O)CC(C)CC(=O)O)C(C)(C)[C@@H]5CC[C@]43C)[C@@H]12 (stereo partly specified) | 111 | 35.2 |
| C#CCOC(=O)[C@]12CCC(C)(C)C[C@H]1C1=CC[C@@H]3[C@@]4(C)CC[C@H](O)C(C)(C)[C@@H]4CC[C@@]3(C)[C@]1(C)CC2 [3BETA-HYDROXY-OLEN-12-EN-28-PROPARGYLATE] | 38.4 | > 259 |
| C=C(C)[C@@H]1CC[C@]2(C(=O)O)CC[C@]3(C)[C@H](CC[C@@H]4[C@@]5(C)CC[C@H](O)C(C)(C)[C@@H]5CC[C@]43C)[C@@H]12 [BETULINIC ACID] | 27.5 | 23.9 |
| C#CCOC(=O)[C@]12CC[C@@H](C(=C)C)[C@@H]1[C@H]1CC[C@@H]3[C@@]4(C)CC[C@H](O)[C@H](C)[C@@H]4CC[C@@]3(C)[C@]1(C)CC2 | 40 | 133 |
| C#CCOC(=O)[C@]12CC[C@@H](C(=C)C)[C@@H]1[C@H]1CC[C@@H]3[C@@]4(C)CC[C@H](OC(=O)CCC(=O)O)[C@H](C)[C@@H]4CC[C@@]3(C)[C@]1(C)CC2 | 10.6 | 11.4 |
| C=C(C)[C@@H]1CC[C@]2(C(=O)OCc3cn([C@H]4C[C@H](n5cc(C)c(=O)[nH]c5=O)O[C@@H]4CO)nn3)CC[C@]3(C)[C@H](CC[C@@H]4[C@@]5(C)CC[C@H](OC(=O)CCCC(=O)O)C(C)(C)[C@@H]5CC[C@]43C)[C@@H]12 | 20.4 | 18.3 |
| C=C(C)[C@@H]1CC[C@]2(C(=O)OCc3cn([C@H]4C[C@H](n5cc(C)c(=O)[nH]c5=O)O[C@@H]4CO)nn3)CC[C@]3(C)[C@H](CC[C@@H]4[C@@]5(C)CC[C@H](O)[C@H](C)[C@@H]5CC[C@]43C)[C@@H]12 | 34 | 7.3 |
| Cc1cn([C@H]2C[C@H](n3cc(COC(=O)[C@]45CC[C@@H](C)[C@H](C)[C@H]4C4=CC[C@@H]6[C@@]7(C)CC[C@H](O)C(C)(C)[C@@H]7CC[C@@]6(C)[C@]4(C)CC5)nn3)[C@@H](CO)O2)c(=O)[nH]c1=O | 28.5 | 34 |
| C=C(C)[C@@H]1CC[C@]2(C(=O)OCc3cn([C@H]4C[C@H](n5cc(C)c(=O)[nH]c5=O)O[C@@H]4CO)nn3)CC[C@]3(C)[C@H](CC[C@@H]4[C@@]5(C)CC[C@H](OC(=O)CCC(=O)O)C(C)(C)[C@@H]5CC[C@]43C)[C@@H]12 | 24.7 | 20.6 |
| C#CCOC(=O)[C@]12CC[C@@H](C(=C)C)[C@@H]1[C@H]1CC(=O)[C@@H]3[C@@]4(C)CCC(=O)[C@H](C)[C@@H]4CC[C@@]3(C)[C@]1(C)CC2 | 63.9 | 59.5 |
| C#CCOC(=O)[C@]12CC[C@@H](C(=C)C)[C@@H]1[C@H]1CC[C@@H]3[C@@]4(C)CCC(=O)[C@H](C)[C@@H]4CC[C@@]3(C)[C@]1(C)CC2 | > 267 | > 267 |
| C=C(C)[C@@H]1CC[C@]2(C(=O)O)CC[C@]3(C)[C@H](C[C@@H](O)[C@@H]4[C@@]5(C)CC[C@@H](O)[C@@](C)(C(=O)O)[C@@H]5CC[C@]43C)[C@@H]12 | > 255 | > 255 |
| C#CCOC(=O)[C@]12CC[C@@H](C(=C)C)[C@@H]1[C@H]1CC[C@@H]3[C@@]4(C)CC[C@H](OCCCC(=O)O)[C@H](C)[C@@H]4CC[C@@]3(C)[C@]1(C)CC2 | 9.9 | 27.3 |
| C#CCOC(=O)[C@]12CC[C@@H](C(=C)C)[C@@H]1[C@H]1CC[C@@H]3[C@@]4(C)CC[C@H](OC(=O)CCC(=O)O)C(C)(C)[C@@H]4CC[C@@]3(C)[C@]1(C)CC2 | 22.2 | 49.9 |
| C#CCOC(=O)[C@]12CC[C@@H](C(=C)C)[C@@H]1[C@H]1CC[C@@H]3[C@@]4(C)CC[C@H](OC(=O)CCCC(=O)O)C(C)(C)[C@@H]4CC[C@@]3(C)[C@]1(C)CC2 | 28.7 | 19.9 |
| C#CCOC(=O)[C@]12CC[C@@H](C(=C)C)[C@@H]1[C@H]1CC[C@@H]3[C@@]4(C)CC[C@H](O)C(C)(C)[C@@H]4CC[C@@]3(C)[C@]1(C)CC2 | > 259 | 114 |
| C=C(C)[C@@H]1CC[C@]2(C(=O)O)CC[C@]3(C)[C@H](C[C@@H](O)[C@@H]4[C@@]5(C)CCC(=O)[C@@H](C)[C@@H]5CC[C@]43C)[C@@H]12 | 46.8 | 58 |

| SMILES | IC50 (KB) [µM] | IC50 (HepG2) [µM] |
| --- | --- | --- |
| C[C@H]1[C@H](C)CC[C@]2(C(=O)O)CC[C@]3(C)C(=CC[C@@H]4[C@@]5(C)CC[C@H](O)C(C)(C)[C@@H]5CC[C@]43C)[C@H]12 [URSOLIC ACID] | 31.5 | 42.9 |
| C=C(C)[C@@H]1CC[C@]2(C(=O)OCc3cn([C@H]4C[C@H](n5cc(C)c(=O)[nH]c5=O)O[C@@H]4CO)nn3)CC[C@]3(C)[C@H](C[C@@H](O)[C@@H]4[C@@]5(C)CCC(=O)[C@@H](C)[C@@H]5CC[C@]43C)[C@@H]12 | 136 | 8.5 |
| C#CCOC(=O)[C@]12CC[C@@H](C(=C)C)[C@@H]1[C@H]1C[C@@H](O)[C@@H]3[C@@]4(C)CCC(=O)[C@@H](C)[C@@H]4CC[C@@]3(C)[C@]1(C)CC2 | 21.9 | 39.6 |
| C#CCOC(=O)[C@]12CC[C@@H](C)[C@H](C)[C@H]1C1=CC[C@@H]3[C@@]4(C)CC[C@H](O)C(C)(C)[C@@H]4CC[C@@]3(C)[C@]1(C)CC2 [3BETA-HYDROXY-URS-12-EN-28-PROPARGYLATE] | 38 | 36.5 |
| Cc1cn([C@H]2C[C@H](n3cc(COC(=O)[C@]45CCC(C)(C)C[C@H]4C4=CC[C@@H]6[C@@]7(C)CC[C@H](O)C(C)(C)[C@@H]7CC[C@@]6(C)[C@]4(C)CC5)nn3)[C@@H](CO)O2)c(=O)[nH]c1=O | 6.3 | 7.4 |
| C=C(C)[C@@H]1CC[C@]2(C(=O)O)CC[C@]3(C)[C@H](CC[C@@H]4[C@@]5(C)CC[C@@H](O)[C@@](C)(C(=O)O)[C@@H]5CC[C@]43C)[C@@H]12 | 110 | 223 |
| C=C(C)[C@@H]1CC[C@]2(C(=O)OCc3cn([C@H]4C[C@H](n5cc(C)c(=O)[nH]c5=O)O[C@@H]4CO)nn3)CC[C@]3(C)[C@H](CC[C@@H]4[C@@]5(C)CCC(=O)[C@H](C)[C@@H]5CC[C@]43C)[C@@H]12 | > 172 | > 172 |
| C#CCOC(=O)[C@]12CC[C@@H](C(=C)C)[C@@H]1[C@H]1CC[C@@H]3[C@@]4(C)CC[C@H](OC(=O)CC(C)CC(=O)O)C(C)(C)[C@@H]4CC[C@@]3(C)[C@]1(C)CC2 (stereo partly specified) | 12.5 | 129 |
| C=C(C)[C@@H]1CC[C@]2(C(=O)OCc3cn([C@H]4C[C@H](n5cc(C)c(=O)[nH]c5=O)O[C@@H]4CO)nn3)CC[C@]3(C)[C@H](CC[C@@H]4[C@@]5(C)CC[C@H](OC(=O)CCC(=O)O)[C@H](C)[C@@H]5CC[C@]43C)[C@@H]12 | 7.3 | 7.8 |
| Cc1cn([C@H]2C[C@H](N=[N+]=[N-])[C@@H](CO)O2)c(=O)[nH]c1=O [ZIDOVUDINE] | > 479 | > 479 |
| C=C(C)[C@@H]1CC[C@]2(C(=O)OCc3cn([C@H]4C[C@H](n5cc(C)c(=O)[nH]c5=O)O[C@@H]4CO)nn3)CC[C@]3(C)[C@H](CC[C@@H]4[C@@]5(C)CC[C@H](O)C(C)(C)[C@@H]5CC[C@]43C)[C@@H]12 | 5.9 | 7 |
| CC1(C)CC[C@]2(C(=O)O)CC[C@]3(C)C(=CC[C@@H]4[C@@]5(C)CC[C@H](O)C(C)(C)[C@@H]5CC[C@]43C)[C@@H]2C1 [OLEANOLIC_ACID] | > 280 | > 280 |
| C=C(C)[C@@H]1CC[C@]2(C(=O)OCc3cn([C@H]4C[C@H](n5cc(C)c(=O)[nH]c5=O)O[C@@H]4CO)nn3)CC[C@]3(C)[C@H](CC(=O)[C@@H]4[C@@]5(C)CCC(=O)[C@H](C)[C@@H]5CC[C@]43C)[C@@H]12 | > 168 | > 168 |
| C=C(C)[C@@H]1CC[C@]2(C(=O)O)CC[C@]3(C)[C@H](CC[C@@H]4[C@@]5(C)CCC(=O)[C@H](C)[C@@H]5CC[C@]43C)[C@@H]12 | 7.7 | 11.2 |
| Cc1c2ccncc2c(C)c2c1[nH]c1ccccc12 [ELLIPTECINE] | 1.2 | 1.2 |
| C=C(C)[C@@H]1CC[C@]2(C(=O)OCc3cn([C@H]4C[C@H](n5cc(C)c(=O)[nH]c5=O)O[C@@H]4CO)nn3)CC[C@]3(C)[C@H](CC[C@@H]4[C@@]5(C)CC[C@H](OCCCC(=O)O)[C@H](C)[C@@H]5CC[C@]43C)[C@@H]12 | > 148 | > 148 |
